{"source": "paper PMC8776894", "about": "(Communications Biology, 2022)", "key": {"HT22 cells (OGD/R) [1]": {"test_system": "HT22 cells (OGD/R)", "assay": "Seahorse extracellular acidification rate (ECAR)", "type": "cell-based, mouse", "settings": "dose-dependent", "procedure": "HT22 cells were counted and plated at 8000 cells per well in a Seahorse XF96 Cell Culture Microplate for all experiments (Agilent). They were then treated with VK (0.0735 or 0.735 μM) for 24 h. […] Next, HT22 cells were washed after 24 h of incubation and were incubated in a 0% CO2 chamber at 37 °C for 1 h, before being placed into a Seahorse XFe96 Analyzer (Agilent). In OCR experiment, HT22 cells were treated, with 2 μM of oligomycin, 5 μM of FCCP, and 1 μM of rotenone and antimycin, respectively; to assess ECAR, they were treated with 1 μM of rotenone and antimycin and 50 mM of 2-DG. All OCR and ECAR data were normalized to cell number per well using WAVE (Agilent)."}, "[2]": {"test_system": "IL-1β, TNF-α, IL-6, IL-8, IL-10 in serum", "assay": "Cytokine ELISA in serum", "type": "in vivo, mouse", "settings": "MCAO/R mice, 48 h", "procedure": "Mice were decapitated under anesthesia at 48 h after MCAO/R. The IL-1β (Cat# 88-5019-88), TNF-α (Cat# 88-7324-22), IL-6 (Cat# 88-7064-88), and IL-8 (Cat# 88-8086-22) were purchased from Thermo Fisher Scientific. The levels of these proteins were measured by enzyme-linked immune sorbent assays (ELISA) kits, according to the manufacturer’s recommendations."}, "[3]": {"test_system": "PI3K (p85α), AKT, IκBα, NF-κB, p38, ERK1/2 phosphorylation", "assay": "Quantitative immunoblotting of brain", "type": "in vivo, mouse", "settings": "MCAO/R mice, Western blot", "procedure": "Quantitative immunoblotting was accomplished as previously described. Anti-β-actin (Themo) was used as an internal loading control. Imaging of blots was performed using an AzureC300 with secondary antibodies(Themo). Analysis was carried out in Image Lab and signal intensities were normalized to loading controls, where applicable. The antibodies and their concentrations are listed as follows (antibody, dilution, catalog number, company, country): AKT (1:1000,4691, CST, USA), phospho-AKT (1:1000, 4046S, CST), phospho-p44/42 MAPK (Erk1/2) (Thr202/Tyr204) (1:1000, 4370S, CST), p44/42 MAPK (Erk1/2) (1:1000,4695S, CST), p38 MAPK (1:1000,8690S, CST), phospho-p38 MAPK (Thr180/Tyr182) (1:1000, 4511S, CST), NF-κB p65 (1:1000,8242S, CST), phospho-NF-κB p65 (Ser536) (1:1000,3033S, CST), IκBα (L35A5) Mouse mAb (1:1000, 4814S, CST), phospho-IκBα (Ser32) (1:1000,2859S, CST), PI3 kinase p85α (1:1000,11889S, CST), and phospho-PI3 kinase p85 (Tyr458)/p55 (Tyr199) (1:1000, 17366S, CST)."}, "BV2 cells (OGD/R)": {"test_system": "BV2 cells (OGD/R)", "assay": "qRT-PCR of proinflammatory mediators", "type": "cell-based, mouse", "settings": "RT-PCR"}, "[4]": {"test_system": "CD45+F4/80+CD11b+MHCII+ microglia", "assay": "Flow cytometry of primary microglia from brain", "type": "in vivo, mouse", "settings": "MCAO/R mice, IF", "procedure": "Brain samples were collected in sham or MCAO mice, digested with collagenase IV and DNase, and filtered with sterile cell strainers (Biologix, 70 µm). Single-cell suspensions were prepared after the removal of red blood cells by ammonium-chloride-potassium (ACK) lysis buffer and isolated leukocytes in brains by 30%, 37%, and 70% Percoll (GE Healthcare) density gradient centrifugation, respectively. Cell numbers were counted by a Coulter counter (Thermo Fisher). Cells were washed with buffer (PBS with 0.5% bovine serum albumin and 0.02% sodium azide) three times and subsequently stained with fluorochrome-conjugated monoclonal antibodies: PE Rat anti-Mouse CD45 (553081, BD Biosciences), FITC anti-mouse F4/80 antibody (123108, Biolegend), PerCP-Cyanine5.5 CD11b antibody (45-0112-82, Invitrogen), and APC anti-mouse I-A/I-E antibody (107614, Biolegend). Samples were analyzed using Flow Cytometry (CytoFLEX S). Subsequent analysis was performed with FlowJo software (Tree Star Inc., San Carlos, CA, USA). Total microglia were identified as CD45^+F4/80^+CD11b^+, M1-like microglia were identified as CD45 + F4/80 + CD11b + MHCII + ."}, "MCAO/R mice [5]": {"test_system": "MCAO/R mice", "assay": "Rotarod test", "type": "in vivo, mouse", "settings": "VK 150 and 300 µg/kg i.p.", "procedure": "The mice were placed in a RotaRod Treadmill (Harvard Apparatus, LE8205) for adaptive training 3 days before MACO/R. The rotating rod was started and the speed was set to accelerate to 40 rpm within 5 min. The mice drop time was recorded as an indicator. The test was performed at 24 and 48 h after MCAO/R."}, "HT22 cells (OGD/R) [6]": {"test_system": "HT22 cells (OGD/R)", "assay": "Annexin V-FITC/propidium iodide apoptosis", "type": "cell-based, mouse", "settings": "Annexin V-FITC/PI flow cytometry"}, "MCAO/R mice [7]": {"test_system": "MCAO/R mice", "settings": "mouse, in vivo"}, "[8]": {"assay": "VK stability in plasma (HPLC)", "type": "in vitro ADME", "settings": "plasma (species not given), pH 7.4, 37 °C, 750 rpm, at 120 min; VK 0.735 mM (Fig. 1 legend 73.5 nM); HPLC-UV 215 nm, peak area relative to 0 min; at least triplicate", "procedure": "Proteolytic degradation of peptide-based drugs is generally considered as the main defect to limit systemic therapeutic applications. Therefore, high-performance liquid chromatography (HPLC) was used to assess the stability of VK in PBS or plasma at physiological pH (7.4) and temperature (37 °C). […] For neuropharmacology, crossing the BBB is a remarkable challenge, and VK was labeled with FITC in the N-terminus. FITC-labeled VK was then administered to stroke mice. After 30 min, these mice were imaged by an in vivo imaging system. […] Brains were collected at 0, 30, 60, 90, and 120 min and the distribution of VK was observed. […] To further evaluate whether VK was a cell-penetrating peptide, the oxygen-glucose deprivation/reoxygenation (OGD/R) model simulated I/R […] was established in HT22 hippocampal neuron cells and FITC-labeled VK was incubated for 120 min.\nVK in PBS or plasma was detected by quantifying the peak areas relative to the initial peak areas (0 min). All stability tests were performed at least in triplicate."}}, "data": [{"substance": "Gly-Arg-Pro-Hyp-Gly-Phe-Ser-Pro-Phe-Arg-Ile-Asp [VK, Vespakinin-M]", "values": [{"measurement": "glycolysis (extracellular acidification rate) in neurons", "setting": "HT22 cells (OGD/R) [1]", "value": "decreased glycolysis"}, {"measurement": "IL-10 level in serum vs vehicle", "setting": "[2]", "value": "increase in IL-10 levels"}, {"measurement": "IL-1β, TNF-α, IL-6 and IL-8 levels in the peripheral (serum) vs vehicle", "setting": "[2]; VK 150 and 300 µg/kg", "value": "decreased IL-1β, TNF-α, IL-6, and IL-8 levels"}, {"measurement": "PI3K (p85α) and AKT phosphorylation", "setting": "[3]", "value": "stimulated MCAO-mediated PI3K (p85α) and AKT phosphorylation"}, {"measurement": "phosphorylation levels of p38 and ERK1/2 vs vehicle", "setting": "[3]", "value": "partially downregulated"}, {"measurement": "IκB and NF-κB phosphorylation levels", "setting": "[3]; VK 300 µg/kg", "value": "reduced IκB and NF-κB levels"}, {"measurement": "OGD/R-increased expression of proinflammatory cytokines in BV2 cells", "setting": "BV2 cells (OGD/R)", "value": "remarkably blocked these effects"}, {"measurement": "activation of microglia", "setting": "[4]", "value": "suppressed the excessive activation of microglia"}, {"measurement": "sensorimotor function, rotarod test", "setting": "MCAO/R mice [5]", "value": "improved functional performance and ameliorated the sensorimotor asymmetry"}, {"measurement": "apoptosis of HT22 cells after OGD/R", "setting": "HT22 cells (OGD/R) [6]", "value": "restrained apoptosis"}, {"measurement": "neurological deficits and infarct size vs vehicle (antagonist study)", "setting": "MCAO/R mice [7]", "value": "attenuated neurological deficits and infarct size"}, {"measurement": "infarct volume, TTC staining", "setting": "MCAO/R mice [7]; ip", "value": "decreased infarct volume"}, {"measurement": "degradation of VK in plasma", "setting": "[8]", "value": "completely degraded"}]}]}
